How the values were obtained:
[1] = molecular target: T1, Heat shock protein HSP90 (Homo sapiens) (UniProt P07900+P08238); assay: Inhibition of HSP90 in human MCF7 cells assessed as induction of mitochondrial membrane potential loss by measuring cell population with mitochondrial membrane potential collapse at 10 uM after 24 hrs by JC1 staining-based flow cytometry analysis (reference value: 6.53 %); set-up: scale not given: the % may be the effect or the level left
[2] = molecular target: T1, Heat shock protein HSP90 (Homo sapiens); assay: Inhibition of HSP90 in human MCF7 cells assessed as induction of nuclear morphological changes by measuring nuclear fragmentation at 2.5 to 10 uM by DAPI staining based fluorescence microscopy analysis; type: cell-based; conditions: dose microM 2.5-10
[3] = molecular target: T1, Heat shock protein HSP90 (Homo sapiens); assay: Inhibition of HSP90 in human MCF7 cells assessed as induction of apoptosis by measuring late apototic cells at 2.5 uM measured after 24 hrs by annexinV-FITC/propidium iodide staining based flow cytometry (reference value: 7.91 %); type: cell-based; set-up: scale not given: the % may be the effect or the level left
[4] = molecular target: T1, Heat shock protein HSP90 (Homo sapiens); assay: Inhibition of HSP90 in human MCF7 cells assessed as induction of apoptosis by measuring live cells at 10 uM measured after 24 hrs by annexinV-FITC/propidium iodide staining based flow cytometry (reference value: 90.77 %); type: cell-based; set-up: scale not given: the % may be the effect or the level left
[5] = molecular target: T1, Heat shock protein HSP90 (Homo sapiens); assay: Inhibition of HSP90 in human MCF7 cells assessed as cell cycle arrest by measuring accumulation at Sub-G1 phase at 2.5 uM measured after 24 hrs by RNaseA/propidium iodide staining based flow cytometric analysis (reference value: 3.75 %); set-up: scale not given: the % may be the effect or the level left
[6] = molecular target: T1, Heat shock protein HSP90 (Homo sapiens); assay: Inhibition of HSP90 in human MCF7 cells assessed as induction of apoptosis by measuring total apoptotic and dead cell population at 0.5 uM measured after 24 hrs by annexinV-FITC/propidium iodide staining based flow cytometry (reference value: 9.23 %); set-up: scale not given: the % may be the effect or the level left
[7] = molecular target: T1, Heat shock protein HSP90 (Homo sapiens); assay: Inhibition of HSP90 in human MCF7 cells assessed as induction of apoptosis by measuring total apoptotic and dead cell population at 4 uM measured after 24 hrs by annexinV-FITC/propidium iodide staining based flow cytometry (reference value: 9.23 %); set-up: scale not given: the % may be the effect or the level left
[8] = molecular target: T1, Heat shock protein HSP90 (Homo sapiens); assay: Inhibition of HSP90 in human MCF7 cells assessed as induction of apoptosis by measuring necrotic cells at 10 uM measured after 24 hrs by annexinV-FITC/propidium iodide staining based flow cytometry (reference value: 0.01 %); type: cell-based; set-up: scale not given: the % may be the effect or the level left
[9] = molecular target: T1, Heat shock protein HSP90 (Homo sapiens); assay: Inhibition of HSP90 in human MCF7 cells assessed as induction of morphological changes by measuring apoptotic body formation at 2.5 to 10 uM by acridine orange/ethidium bromide staining based fluorescence microscopy analysis; type: cell-based; conditions: dose microM 2.5-10
[10] = molecular target: T1, Heat shock protein HSP90 (Homo sapiens); assay: Inhibition of HSP90 in human MCF7 cells assessed as cell cycle arrest by measuring accumulation at Sub-G1 phase at 5 uM measured after 24 hrs by RNaseA/propidium iodide staining based flow cytometric analysis (reference value: 3.75 %); set-up: scale not given: the % may be the effect or the level left
[11] = molecular target: T1, Heat shock protein HSP90 (Homo sapiens); assay: Inhibition of HSP90 in human MCF7 cells assessed as induction of apoptosis by measuring early apototic cells at 5 uM measured after 24 hrs by annexinV-FITC/propidium iodide staining based flow cytometry (reference value: 1.31 %); type: cell-based; set-up: scale not given: the % may be the effect or the level left
[12] = molecular target: T1, Heat shock protein HSP90 (Homo sapiens); assay: Inhibition of HSP90 in human MCF7 cells assessed as induction of morphological changes by measuring chromatin condensation and fragmentation in nucleus at 2.5 to 10 uM by acridine orange/ethidium bromide staining based fluorescence microscopy analysis; type: cell-based; conditions: dose microM 2.5-10
[13] = molecular target: T1, Heat shock protein HSP90 (Homo sapiens); assay: Inhibition of HSP90 in human MCF7 cells assessed as induction of apoptosis by measuring live cells at 5 uM measured after 24 hrs by annexinV-FITC/propidium iodide staining based flow cytometry (reference value: 90.77 %); type: cell-based; set-up: scale not given: the % may be the effect or the level left
[14] = molecular target: T1, Heat shock protein HSP90 (Homo sapiens); assay: Inhibition of HSP90 in human MCF7 cells assessed as cell cycle arrest by measuring accumulation at G0/G1 phase at 2.5 uM measured after 24 hrs by RNaseA/propidium iodide staining based flow cytometric analysis (reference value: 39.10 %); set-up: scale not given: the % may be the effect or the level left
[15] = molecular target: T1, Heat shock protein HSP90 (Homo sapiens); assay: Inhibition of HSP90 in human MCF7 cells assessed as increase in ROS generation by measuring fluorescence intensity at 2.5 to 10 uM after 24 hrs by DCFDA staining based flow cytometry; type: cell-based; conditions: dose microM 2.5-10, time 24.0 hrs
[16] = molecular target: T1, Heat shock protein HSP90 (Homo sapiens); assay: Inhibition of HSP90 in human MCF7 cells assessed as induction of morphological changes by measuring membrane blebbing at 2.5 to 10 uM by acridine orange/ethidium bromide staining based fluorescence microscopy analysis; type: cell-based; conditions: dose microM 2.5-10
[17] = molecular target: T1, Heat shock protein HSP90 (Homo sapiens); assay: Inhibition of HSP90 in human MCF7 cells assessed as cell cycle arrest by measuring accumulation at S phase at 2.5 uM measured after 24 hrs by RNaseA/propidium iodide staining based flow cytometric analysis (reference value: 7.08 %); set-up: scale not given: the % may be the effect or the level left
[18] = molecular target: T1, Heat shock protein HSP90 (Homo sapiens); assay: Inhibition of HSP90 in human MCF7 cells assessed as induction of mitochondrial membrane potential loss by measuring cell population with mitochondrial membrane potential collapse at 5 uM after 24 hrs by JC1 staining-based flow cytometry analysis (reference value: 6.53 %); set-up: scale not given: the % may be the effect or the level left
[19] = molecular target: T1, Heat shock protein HSP90 (Homo sapiens); assay: Inhibition of HSP90 in human MCF7 cells assessed as induction of apoptosis by measuring early apototic cells at 10 uM measured after 24 hrs by annexinV-FITC/propidium iodide staining based flow cytometry (reference value: 1.31 %); type: cell-based; set-up: scale not given: the % may be the effect or the level left
[20] = molecular target: T1, Heat shock protein HSP90 (Homo sapiens); assay: Inhibition of HSP90 in human MCF7 cells assessed as induction of apoptosis by measuring late apototic cells at 10 uM measured after 24 hrs by annexinV-FITC/propidium iodide staining based flow cytometry (reference value: 7.91 %); type: cell-based; set-up: scale not given: the % may be the effect or the level left

Activity [1]: 53%
inhibition [2]: Dose-dependent effect
Activity [3]: 10.1%
Activity [4]: 62.3%
Activity [5]: 6.27%
Activity [6]: 12.1%
Activity [7]: 34.7%
inhibition [9]: Dose-dependent effect
Activity [10]: 16.7%
Activity [11]: 3.8%
inhibition [12]: Dose-dependent effect
Activity [13]: 77.4%
Activity [14]: 35.2%
inhibition [15]: Dose-dependent effect
inhibition [16]: Dose-dependent effect
Activity [17]: 7.74%
Activity [18]: 21.8%
Activity [19]: 4.11%
Activity [20]: 30.5%
SMILES: Nc1nc(-c2ccc(Br)cc2)cc(-c2cn(-c3ccc(Cl)cc3)nc2-c2ccc([N+](=O)[O-])cc2)n1
Activity [8]: 0.12%
